Patent publication US20100173956A1, “Use of Quaternary Pyridinium Salts as Vasoprotective Agents” (Pharmena Spolka Akcyjna (Pharmena S.A.), priority 2004, published 2010)
“Also recorded” adds a separate entry of the source.

How the values were obtained:
platelets = assay: Collagen-induced aggregation in platelet-rich plasma in vitro; format: cell-based; settings: for effect on collagen-induced aggregation of platelets (FIG. 9): FIG. 9, (1 mg/ml)
platelet-rich thrombi = assay: Thrombolytic activity in rats with extracorporal circulation (method of Gryglewski); format: in vivo, Wistar rats; settings: for thrombolytic response: single injection, fall in weight of thrombi, maximum response
Description: Thrombolytic activity of quaternary pyridinium salts was assessed using original method of Gryglewski et al., (Gryglewski R J, Korbut R, Ocetkiewicz A, Stachura J. In vivo method for quantitation for anti-platelet potency of drugs. Naunyn Schmiedebergs Arch Pharmacol 1978; 302:25-30), the scheme of which was shown on FIG. 1.
(§1) Wistar rats of body weight 300-350 g were anaesthetised (thiopental 30 mg kg^−1 i.p.) and heparinised (unfractionated heparin. 800 i.u. kg^−1 i.v.). Arterial blood pressure was measured from cannulated right carotid artery, and extracorporal circulation was established between left carotid artery and left jugular vein. A collagen strip from rabbit tendon of Achilles was superfused with arterial blood in extracorporal circulation at a rate of 1.5 ml min^−1 and its weight was continuously monitored by an auxotonic Harvard transducer.
(§2) During the initial 20-30 min of superfusion the strip was gaining in weight by 80-120 mg because of deposition of platelet-rich thrombi and then in control conditions stayed unchanged during next 3-5 hrs. Thrombolytic response was detected by a fall in weight of a thrombi. Arterial blood pressure was also monitored, so this model enabled the analysis of thrombolytic and hypotensive action of a compound (FIG. 1).

[1] = tested on: 6-keto-PGF1α (stable PGI2 metabolite); assay: Assay of 6-keto-PGF1α in arterial blood plasma (enzyme immunoassay); format: in vivo, Wistar rats
Description: (§3) The analysis of the thrombolytic response in this experimental set-up was complemented by the assay of 6-keto-PGF1α, TXB2 and PGE2 in arterial blood plasma. For this purpose blood samples (500 μl) were collected in Eppendorff tubes with indomethacin to yield its final concentration of 10 μM, and EDTA to yield the final concentration of 1 mM. Then, the blood samples were spinned for 5 min at 2.000×g. Plasma samples were stored at −70° C. The prostanoids were assayed using the enzyme immunoassay kits (Cayman Chemical Co, Ann Arbor, Mich.).

neutrophils = assay: Latex-induced activation of neutrophils; format: cell-based
TXB2 = assay: Assay of TXB2 in arterial blood plasma (enzyme immunoassay); format: in vivo, Wistar rats; settings: 30 mg/kg i.v.
Description: as §3

[2] = Anti-atherogenic effect in dyslipidemic patients (plasma TC, TG, HDL); format: in vivo; settings: 30 mg orally three times a day
Description: The anti-atherogenic effect of MNA^+ was investigated in 15 dyslipidemic patients. The enrollment criteria were: high level of TG (≧250 mg/dl) and low level of HDL (≦35 mg/dl for male, ≦45 mg/dl for female). The mean age of the patients was 61.4 (range 45-81 years). The patients were treated with MNA^+ for 2 weeks. The MNA^+ was administered orally, three times a day, one capsule (30 mg MNA^+) after meal. The plasma levels of TC, TG, HDL were measured at baseline and after 2 weeks of therapy. The level of LDL was measured in those cases, where it was possible (due to high TG level).

PGE2 = assay: Assay of PGE2 in arterial blood plasma (enzyme immunoassay); format: in vivo, Wistar rats; settings: 30 mg/kg i.v.
Description: as §3

[3] = Arterial blood pressure monitoring (hypotensive action); format: in vivo, Wistar rats
Description: as §1, §2

CC(=O)Oc1ccccc1C(=O)O [aspirin, reference compound]
effect on collagen-induced aggregation of platelets (FIG. 9) (platelets): abrogated

O=C(O)c1cccnc1 [nicotinic acid]
thrombolytic response (in words) (platelet-rich thrombi; 30 mg/kg i.v.): Lack of thrombolytic response; also recorded: failed to induce a significant thrombolytic response; also recorded: did not display a significant thrombolytic activity
thrombolytic response (platelet-rich thrombi; 30 mg/kg i.v.): 5±0.9%
change of 6-keto-PGF1α level / release of PGI2 (in words) ([1]; 30 mg/kg i.v.): did not increase

C[n+]1cccc(C(=O)[O-])c1 [trigonelline]
thrombolytic response (in words) (platelet-rich thrombi; 30 mg/kg i.v.): Lack of thrombolytic response; also recorded: failed to induce a significant thrombolytic response; also recorded: did not display a significant thrombolytic activity
thrombolytic response (platelet-rich thrombi; 30 mg/kg i.v.): did not produce any thrombolytic response

C[n+]1cccc(C(N)=O)c1 [MNA^+, 1-methylnicotinamide]
inhibition of latex-induced activation of neutrophils (neutrophils; 1 mM): did not inhibit
effect on latex-induced activation of neutrophils (FIG. 10) (neutrophils): Lack of effect; also recorded: did not inhibit
effect on collagen-induced aggregation of platelets (FIG. 9) (platelets): Lack of effect; also recorded: did not inhibit
effect on collagen-induced aggregation in platelet-rich plasma (platelets; in vitro, up to concentration of 10 mM): not affected
thrombolytic response (platelet-rich thrombi; 30 mg/kg i.v.): 42±4%
duration of thrombolytic response (platelet-rich thrombi; 30 mg/kg i.v., response remained at approximately the same level over the observation period): 2 to 3 h
dose dependence of thrombolysis (platelet-rich thrombi; 3-30 mg/kg i.v.): concentration-dependent thrombolysis
dose of maximum thrombolytic response (platelet-rich thrombi; i.v., 3-30 mg/kg tested): 30 mg/kg
thrombolytic response in the presence of indomethacin (platelet-rich thrombi; indomethacin 5 mg/kg): abrogated
change of 6-keto-PGF1α level / release of PGI2 (in words) ([1]; 30 mg/kg i.v.): concomitant increase in level of 6-keto-PGF1α
level of 6-keto-PGF1α in arterial plasma ([1]; 30 mg/kg i.v., 15 minutes after injection, before injection 104±7 pg/ml): 460 ± 58 pg/mL
plateau level of 6-keto-PGF1α in arterial plasma ([1]; 30 mg/kg i.v., for at least one hour): around 400 pg/ml
release of 6-keto-PGF1α in the presence of indomethacin ([1]; indomethacin 5 mg/kg): abrogated
change of TXB2 level in arterial plasma (TXB2): neither TXB2 nor PGE2 levels changed significantly
change of TC level, baseline to 2 weeks [2]: −15.7%
change of TG level, baseline to 2 weeks [2]: −47.1%
increase of HDL level, baseline to 2 weeks [2]: 36.2%
TC plasma level after 2 weeks ([2]; 15 dyslipidemic patients, baseline 267.0 mg/dl): 225.1 mg/dL
HDL plasma level after 2 weeks ([2]; baseline 39.2 mg/dl): 53.4 mg/dL
TG plasma level after 2 weeks ([2]; baseline 472.6 mg/dl): 249.9 mg/dL
TG/HDL ratio after 2 weeks ([2]; baseline 13.9): 5.8
change of PGE2 level in arterial plasma (PGE2): neither TXB2 nor PGE2 levels changed significantly
fall in arterial blood pressure ([3]; 30 mg/kg i.v., during thrombolysis): not associated with a fall in arterial blood pressure
hypotension ([3]; 30-300 mg/kg): did not cause hypotension

Cn1cc(C(N)=O)ccc1=O [2-PYR, 1-methyl-2-pyridone-5-carboxyamide]
duration of thrombolytic response (transient) (platelet-rich thrombi; 30 mg/kg i.v.): < 15 min
thrombolytic response (in words) (platelet-rich thrombi; 30 mg/kg i.v.): Lack of thrombolytic response; also recorded: failed to induce a significant thrombolytic response; also recorded: did not display a significant thrombolytic activity
thrombolytic response (platelet-rich thrombi; 30 mg/kg i.v.): < 10%

C[n+]1cccc(C(=O)NCO)c1 [MNAF^+, 1-methyl-N′-(hydroxymethyl)nicotinamide]
thrombolytic response (in words) (platelet-rich thrombi; 30 mg/kg i.v.): comparable to that induced by 30 mg/kg of MNA^+

1-Methyl-3-acetylpyridinium salt [MAP^+]
thrombolytic response (in words) (platelet-rich thrombi; 30 mg/kg i.v.): comparable to that induced by 30 mg/kg of MNA^+
change of 6-keto-PGF1α level / release of PGI2 (in words) ([1]; 30 mg/kg i.v.): associated with the release of PGI2

NC(=O)c1cccnc1 [nicotinamide]
thrombolytic response (in words) (platelet-rich thrombi; 30 mg/kg i.v.): Lack of thrombolytic response; also recorded: failed to induce a significant thrombolytic response
thrombolytic response (platelet-rich thrombi; 30 mg/kg i.v.): 9±0.6%
thrombolytic response (in words) (platelet-rich thrombi; 30 mg/kg i.v., listed as Nicotinamide): did not display a significant thrombolytic activity
change of 6-keto-PGF1α level / release of PGI2 (in words) ([1]; 30 mg/kg i.v.): did not increase

c1ccc2c(c1)[I+]c1ccccc1-2 [DPI, reference compound]
effect on latex-induced activation of neutrophils (FIG. 10) (neutrophils): abrogated

COc1cc(C(C)=O)ccc1O [apocynin, reference compound]
effect on latex-induced activation of neutrophils (FIG. 10) (neutrophils): abrogated
